Measurements: patent publication US20060270615A1, “Compositions suitable for the treatment of damage caused by ischemia/reper-fusion or oxidative stress” (N.V. NUTRICIA, priority 2000, published 2006)
Values joined by “and” are separate entries in the source; they are usually repeats but may differ in a detail not shown here. Identical values can stand only once.

Tests used:
[1] = biological target: T1, xanthine oxidase (grade I from buttermilk) (Bos taurus, UniProt P80457); assay: Xanthine oxidase inhibition (xanthine oxidase assay), uric acid production; format: biochemical; conditions: xanthine substrate, pH 7.8, absorbance at 295 nm; for IC50: read-out: IC-50 xanthine oxidase inhibition (converted)
T1 construct: XOD (xanthine oxidase) (grade I from buttermilk); from tissue; host or cells: buttermilk
T1 sequence (P80457 whole entry): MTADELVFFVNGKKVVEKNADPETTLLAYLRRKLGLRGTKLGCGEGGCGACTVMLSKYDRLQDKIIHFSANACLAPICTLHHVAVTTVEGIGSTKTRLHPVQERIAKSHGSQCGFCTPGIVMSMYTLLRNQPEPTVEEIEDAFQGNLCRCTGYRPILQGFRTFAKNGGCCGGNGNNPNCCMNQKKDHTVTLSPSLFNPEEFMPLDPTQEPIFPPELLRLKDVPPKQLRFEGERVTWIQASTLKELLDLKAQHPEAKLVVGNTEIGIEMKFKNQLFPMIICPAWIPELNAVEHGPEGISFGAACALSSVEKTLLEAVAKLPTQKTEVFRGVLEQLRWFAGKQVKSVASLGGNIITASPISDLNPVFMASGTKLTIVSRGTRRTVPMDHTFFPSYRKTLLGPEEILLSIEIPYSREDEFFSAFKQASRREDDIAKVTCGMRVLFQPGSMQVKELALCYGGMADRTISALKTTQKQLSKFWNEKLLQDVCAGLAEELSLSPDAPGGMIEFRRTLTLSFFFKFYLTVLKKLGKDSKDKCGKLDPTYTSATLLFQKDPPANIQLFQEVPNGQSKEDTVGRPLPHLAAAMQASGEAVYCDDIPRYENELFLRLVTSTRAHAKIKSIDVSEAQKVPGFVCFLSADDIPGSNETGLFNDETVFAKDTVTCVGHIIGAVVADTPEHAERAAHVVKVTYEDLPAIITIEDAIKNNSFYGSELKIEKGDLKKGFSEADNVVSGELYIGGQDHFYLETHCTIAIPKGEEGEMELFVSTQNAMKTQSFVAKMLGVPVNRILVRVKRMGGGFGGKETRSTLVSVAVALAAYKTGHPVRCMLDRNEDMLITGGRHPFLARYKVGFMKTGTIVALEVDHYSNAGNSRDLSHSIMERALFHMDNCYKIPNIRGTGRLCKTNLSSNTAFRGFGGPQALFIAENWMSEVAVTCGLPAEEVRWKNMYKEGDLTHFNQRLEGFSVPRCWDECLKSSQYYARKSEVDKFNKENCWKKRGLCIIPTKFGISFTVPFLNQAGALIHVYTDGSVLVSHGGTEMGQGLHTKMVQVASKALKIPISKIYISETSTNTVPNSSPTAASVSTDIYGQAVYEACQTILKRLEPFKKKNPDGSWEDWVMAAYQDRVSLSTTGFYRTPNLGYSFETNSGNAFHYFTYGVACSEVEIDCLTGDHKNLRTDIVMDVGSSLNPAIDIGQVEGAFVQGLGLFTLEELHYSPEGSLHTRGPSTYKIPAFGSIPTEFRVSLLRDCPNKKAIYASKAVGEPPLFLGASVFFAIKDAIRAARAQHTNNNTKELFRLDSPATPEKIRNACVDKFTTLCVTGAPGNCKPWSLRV
Experimental: Xanthine Oxidase Inhibition (Xanthine Oxidase Assay)
The activity of xanthine oxidase is determined by means of the uric acid production.
This solution is maintained on ice during the entire experiment to prevent changes in the activity of the enzyme.
724 μl phophate buffer pH=7.8
10 μl DMSO or the substance to be tested dissolved in DMSO
The reaction is started by addition of 66 μl of the enzyme solution to the above described assay mixture. […] If the reaction is linear, the result is expressed as Δ absorbance/min. […] The maximum activity is the activity of the enzyme, when no substance is dissolved in DMSO.

[2] = Peroxyl radical scavenging (β-phycoerythrin fluorescence assay, ORACROO); format: biochemical; set-up: key to TE (Trolox equivalent) (based on mole weight): ratio of net curve area to Trolox's, molar basis; conditions: relative to Trolox, area under fluorescence curve
Experimental: In the β-phycoerythrin fluorescence based assay the reduction of β-phycoerythrin decomposition by radicals resulting from the thermal decomposition of V50 is measured. […]
Peroxyl Radical Scavenging (β-phycoerythrin fluorescence assay)
The principle underlying the present method is that B-phycoerythrin is decomposed by radicals that are the result of the thermolitic decomposition of V50 at 20° C. When a product scavenges these radicals, the decrease in fluorescence in time will occur less quickly. All measurements should be carried out at least in threefold.
AAPH (2,2′-azobis(2-aminopropane)dihydrochloride) (e.g. from Wako Chemicals)=V50; MW=271.19 g/mol; 16 mM in the assay
β-PE (e.g. from Sigma) MW=240,000 g /mol; 16.7 nM in the assay
Trolox (e.g. from Aldrich) MW =250.29 g/mol; in the assay test in the range of 1-10 μM.
Each tray should contain trolox as a reference and as a standard (2 μM or 0.5 mg/l). As a negative control a sample is taken containing only 10 μl ethanol, 50 μl 50 mM PBS, pH=7.4 and 50 μl 66.8 nM β-PE.
The reaction is started by adding 100 μl 32nM V-50. The time between pipetting and mixing of this last step in a well and the measurement of this well, should be constant. Further, the time between the last pipetting step in a well and the first measurement of the well should be less than 2 minutes.
V-50 should be stored in the dark at 4° C. until used. The reaction kinetics of the wells are monitored in a continuous monitoring process. The excitation wavelength is 540 nm, while the emission wavelength is 565 nm. The reaction is monitored until the signal of the sample differs no longer from the background signal (±10%). The area underneath the curve of the negative reference is subtracted from the area underneath the substance to be measured. This difference in area is then related to a difference in area in relation to a negative reference resulting from trolox.

Row | Structure (SMILES) | IC50 [1] | IC-50 xanthine oxidase inhibition [1] | TE (Trolox equivalent) (based on mass) [2] | TE (Trolox equivalent) (based on mole weight) [2]
1 | O=C(O[C@@H]1Cc2c(O)cc(O)cc2O[C@@H]1c1cc(O)c(O)c(O)c1)c1cc(O)c(O)c(O)c1 [Epigalo-catechin-galate (ECCG), Epigalo-catechin-galate] |  | not detectable | 0.54 | 0.99
2 | O=c1c(O)c(-c2cc(O)c(O)c(O)c2)oc2cc(O)cc(O)c12 [Myricetin] | 1510 nM and 1500 nM |  | 0.89 | 1.13
3 | O=C1c2ccc(O)cc2O[C@H](c2ccc(O)c(O)c2)[C@H]1O [fustin] |  |  | 1.07 | 1.24
4 | O=c1c(O)c(-c2ccc(O)c(O)c2)oc2cc(O)cc(O)c12 [quercetin] |  |  | 1.32 | 1.78

Further lines, with some results ahead:

Row | IC50 [1] | IC-50 xanthine oxidase inhibition [1] | Structure (SMILES) | TE (Trolox equivalent) (based on mass) [2] | TE (Trolox equivalent) (based on mole weight) [2]
5 | 999 nM and 1000 nM |  | O=c1cc(-c2ccc(O)cc2)oc2cc(O)cc(O)c12 [Apigenin] | 1.56 | 1.69
6 | 2540 nM and 2500 nM |  | O=c1cc(-c2ccccc2)oc2cc(O)cc(O)c12 [Chrysin] |  | 
7 |  | not detectable | COc1cc(/C=C/C(=O)CC(=O)/C=C/c2ccc(O)c(OC)c2)ccc1O [Curcumin] |  | 
8 |  | not detectable | Oc1cc(O)c2c(c1)O[C@H](c1ccc(O)c(O)c1)[C@H](O)C2 [Epicatechin] |  | 
9 | 751 nM and 750 nM |  | O=c1cc(-c2ccc(O)c(O)c2)oc2cc(O)cc(O)c12 [Luteolin] | 1.22 | 1.40
